Earlier results as cited in patent publication US20060036094A1 (priority 2004, published 2006).

Tested on: phorbol myristate-induced inflammation

Substance: zoanthamine
- inhibitory activity toward phorbol myristate-induced inflammation: potent inhibitory activity
